Assay results taken from ChEMBL document CHEMBL4732232, “Protease targeted COVID-19 drug discovery: What we have learned from the past SARS-CoV inhibitors?” (Eur J Med Chem, 2021).

Legend:
[1] = Inhibition of SARS CoV 3C-like protease expressed in Escherichia coli GJ1158 using 2-aminobenzoyl-SVTLQSG-Tyr(NO2)-R as substrate by FRET assay; parameters: species or system Severe acute respiratory syndrome-related coronavirus
[2] = Inhibition of SARS CoV HKU3984 His-tagged 3C-like protease using H2N-TSAVLQSGFRKW-COOH as substrate by HPLC method; parameters: species or system Severe acute respiratory syndrome-related coronavirus
[3] = test system: Severe acute respiratory syndrome-related coronavirus; test: Irreversible inhibition of SARS CoV 3C-like protease assessed as ratio of Kinact to Ki using Abz-Ser-Val-Thr-Leu-Gln-Ser-Gly-(NO2)Tyr-Arg as substrate by fluorescence method
[4] = Inhibition of SARS CoV 3C-like protease; parameters: species or system Severe acute respiratory syndrome-related coronavirus
[5] = Inhibition of SARS CoV 3C-like protease using 12-mer fluorogenic peptide Dabcyl-KNSTLQSGLRKE-Edans as substrate incubated for 60 mins by fluorometric assay; parameters: species or system Severe acute respiratory syndrome-related coronavirus
[6] = Inhibition of SARS CoV papain-like protease using Arg-Leu-Arg-Gly-Gly-AMC as substrate by fluorescence method; parameters: species or system Severe acute respiratory syndrome-related coronavirus
[7] = Inhibition of SARS CoV 3C-like protease using Abz-SVTLQSG-Tyr(NO2)R as substrate by fluorescence method; parameters: species or system Severe acute respiratory syndrome-related coronavirus
[8] = Inhibition of SARS CoV 3C-like protease using Dabcyl-KTSAVLQSGFRKME-Edans as substrate by fluorometric assay; parameters: species or system Severe acute respiratory syndrome-related coronavirus
[9] = Inhibition of MERS CoV 3C-like protease using Dabcyl-KTSAVLQSGFRKME-Edans as substrate by fluorometric assay; parameters: species or system Middle East respiratory syndrome-related coronavirus
[10] = Inhibition of SARS CoV His-tagged 3C-like protease expressed in Escherichia coli BL21 using Dabcyl-KTSAVLQ-SGFRKME-Edans as substrate by Lineweaver-Burk analysis; parameters: species or system Severe acute respiratory syndrome-related coronavirus
[11] = Competitive inhibition of SARS CoV 3C-like protease using fluorogenic substrate by Lineweaver-Burk plot analysis; parameters: species or system Severe acute respiratory syndrome-related coronavirus

Cc1ccc2nc(-c3ccc(N)cc3)sc2c1S(=O)(=O)O
IC50 [1]: 4300 nM

CC1=C(C(=O)OCCc2ccccc2)C(c2ccccc2[N+](=O)[O-])C2=C(CCCC2=O)N1 (configuration not stated)
IC50 [2]: 2500 nM

CCOC(=O)C1OC1C(=O)N(CCC(N)=O)NC(=O)[C@H](Cc1ccccc1)NC(=O)[C@H](CC(C)C)NC(=O)OCc1ccccc1 (some centres not stated)
Ratio [3]: 1900 M⁻¹ s⁻¹

O=C(/C=C/c1ccccc1)N[C@@H](Cc1ccccc1)C(=O)N[C@@H](C[C@@H]1CCNC1=O)C(=O)C(=O)NCc1ccccc1
IC50 [4]: 1950 nM

O=C(/C=C/CCc1ccc(O)c(O)c1)CCc1ccc(O)c(O)c1 [DEHYDROHIRSUTANONOL]
IC50 [5]: 36200 nM
IC50 [6]: 4100 nM

CC(=O)N[C@H](C(=O)N[C@H](C(=O)N[C@@H](CC(C)C)C(=O)N[C@@H](C[C@@H]1CCNC1=O)C(=O)CN1Cc2cccc([N+](=O)[O-])c2C(=O)N1)[C@@H](C)OCc1ccccc1)C(C)C
IC50 [7]: 600 nM

O=C[C@@H](C[C@H]1CCNC1=O)NC(=O)[C@@H](Cc1ccccc1)NC(=O)/C=C/c1ccc(Cl)cc1F
IC50 [8]: 200 nM
IC50 [9]: 4700 nM

O=C(/C=C/c1ccccc1)N[C@@H](CC1CCCCC1)C(=O)N[C@@H](C[C@@H]1CCNC1=O)C(=O)C(=O)NCc1ccccc1
IC50 [4]: 710 nM

CC(C)[C@H](NC(=O)[C@H](C)NC(=O)OCc1ccccc1)C(=O)C[C@@H](Cc1ccccc1)[C@@H](O)[C@H](O)[C@H](Cc1ccccc1)NC(=O)[C@@H](NC(=O)[C@H](C)NC(=O)OCc1ccccc1)C(C)C
Ki [10]: 600 nM

CC(C)[C@H](NC(=O)[C@H](C)NC(=O)OCc1ccccc1)C(=O)C[C@@H](Cc1c[nH]c2ccccc12)[C@@H](O)[C@H](O)[C@H](Cc1c[nH]c2ccccc12)NC(=O)[C@@H](NC(=O)[C@H](C)NC(=O)OCc1ccccc1)C(C)C
Ki [11]: 73 nM
